Drawing on patent US20240199546A1, “INHIBITORS OF SOLUTE CARRIER FAMILY 6A MEMBER 19 (SLC6A19) AND METHODS OF USE THEREOF” (Maze Therapeutics, Inc., priority 2022, published 2024), this text covers IC50 for 30 compounds.

The test deals with T1, human SLC6A19 and TMEM27 (Homo sapiens, UniProt Q695T7).
T1 construct: expressed in transfected cells
T1 sequence (Q695T7 1-634): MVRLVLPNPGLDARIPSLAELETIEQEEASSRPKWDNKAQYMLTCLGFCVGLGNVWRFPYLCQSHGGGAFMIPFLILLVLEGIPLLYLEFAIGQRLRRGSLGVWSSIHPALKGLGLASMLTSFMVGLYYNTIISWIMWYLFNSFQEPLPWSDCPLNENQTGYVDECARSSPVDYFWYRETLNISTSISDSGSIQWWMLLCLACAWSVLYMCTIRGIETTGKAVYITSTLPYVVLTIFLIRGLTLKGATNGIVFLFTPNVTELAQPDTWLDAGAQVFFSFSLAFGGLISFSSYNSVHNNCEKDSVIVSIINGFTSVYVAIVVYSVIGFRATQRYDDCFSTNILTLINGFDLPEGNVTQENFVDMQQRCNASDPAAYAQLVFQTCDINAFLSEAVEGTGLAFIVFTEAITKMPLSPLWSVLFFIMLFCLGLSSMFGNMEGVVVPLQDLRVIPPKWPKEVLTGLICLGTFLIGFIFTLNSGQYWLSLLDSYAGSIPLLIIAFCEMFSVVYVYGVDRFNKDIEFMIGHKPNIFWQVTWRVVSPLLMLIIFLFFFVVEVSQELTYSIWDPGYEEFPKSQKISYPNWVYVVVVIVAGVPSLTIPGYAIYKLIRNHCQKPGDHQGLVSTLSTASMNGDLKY
T1 sequence (Q9HBJ8 15-222 partner): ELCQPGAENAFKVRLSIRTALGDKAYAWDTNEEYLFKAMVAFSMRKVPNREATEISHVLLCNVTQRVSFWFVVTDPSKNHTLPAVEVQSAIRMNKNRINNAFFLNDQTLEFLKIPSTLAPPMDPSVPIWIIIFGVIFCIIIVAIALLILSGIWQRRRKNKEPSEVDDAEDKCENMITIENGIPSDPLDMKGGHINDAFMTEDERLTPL
In words: Radiolabelled (3H) leucine uptake in CHO cells with doxycycline-inducible expression of human SLC6A19 and TMEM27 (Example B-1). The test is classed as cell-based. The note with it: CHO cells with doxycycline-inducible expression of human SLC6A19 and TMEM27, read-out: SLC6A19_Radioligand Uptake Assay IC50. In a few lines:
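CHO cells were induced with doxycycline for 18 h at 37 °C, washed in HBSS, then exposed to compounds for 1 h: 8-point, 3-fold dilutions in duplicate, 0.5% DMSO final. Uptake measured by scintillation counting after 2 h shaking. Activity normalized with positive control as 0% and DMSO as 100%.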
In the case of `Cc1cc(COc2cc3[nH]c(CNC(=O)C(C)C#N)cc3cc2Cl)on1` (single isomer, unassigned) [Compound 446, (R or S)-N-((5-chloro-6-((3-methylisoxazol-5-yl)methoxy)-1H-indol-2-yl)methyl)-2-cyanopropanamide], the IC50 (commonly the concentration that gives 50% inhibition) came to 221 nM.

Take `Cc1cc(COc2cc3[nH]c(CNC(=O)N4CCCC4)cc3cc2F)no1` [Compound 117, N-((5-fluoro-6-((5-methylisoxazol-3-yl)methoxy)-1H-indol-2-yl)methyl)pyrrolidine-1-carboxamide]: the IC50 worked out at 267 nM.

As for `CC1(C(=O)NCc2cc3cc(Cl)c(OCc4cccc(O)c4)cc3[nH]2)CC1` [Compound 198, N-((5-chloro-6-((3-hydroxybenzyl)oxy)-1H-indol-2-yl)methyl)-1-methylcyclopropane-1-carboxamide], the IC50 was 2050 nM.

Take `CC1CCCN1C(=O)NCc1cc2cc(Cl)c(OCc3ccon3)cc2[nH]1` (stereo not drawn) [Compound 86, N-((5-chloro-6-(isoxazol-3-ylmethoxy)-1H-indol-2-yl)methyl)-2-methylpyrrolidine-1-carboxamide]: the IC50 came out at 490 nM.

On to `COC(=O)NCc1cc2cc(F)c(OCc3cscn3)cc2[nH]1` [Compound 622, methyl ((5-fluoro-6-(thiazol-4-ylmethoxy)-1H-indol-2-yl)methyl)carbamate], for which the IC50 is 84.8 nM.

For the compound `Cc1cc(COc2cc3[nH]c(CNC(=O)[C@H]4C[C@@H](O)C4)cc3cc2Cl)on1` [Compound 253, (1S,3S)-N-((5-chloro-6-((3-methylisoxazol-5-yl)methoxy)-1H-indol-2-yl)methyl)-3-hydroxycyclobutane-1-carboxamide], the IC50 was determined as 606 nM.

As for `O=C(NCc1cc2cc(Cl)c(OCc3cscn3)cc2[nH]1)C1(C(F)F)CC1` [Compound 559, N-((5-chloro-6-(thiazol-4-ylmethoxy)-1H-indol-2-yl)methyl)-1-(difluoromethyl)cyclopropane-1-carboxamide], the concentration for half-maximal inhibition (IC50) worked out at 196 nM.

With `CC(C)c1cc(COc2cc3[nH]c(CNC(=O)C4(C)CC4)cc3cc2Cl)no1` [Compound 102, N-((5-chloro-6-((5-isopropylisoxazol-3-yl)methoxy)-1H-indol-2-yl)methyl)-1-methylcyclopropane-1-carboxamide], the half-maximal inhibitory concentration (IC50) stood at 17600 nM.

Consider `O=C(NCc1cc2cc(Cl)c(OCc3cscn3)cc2[nH]1)C1CC12CCC2` (stereo not drawn) [Compound 558, N-((5-chloro-6-(thiazol-4-ylmethoxy)-1H-indol-2-yl)methyl)spiro[2.3]hexane-1-carboxamide], for which the half-inhibitory concentration (IC50) stood at 1030 nM.

On to `CO[C@@H](C)C(=O)NCc1cc2cc(Cl)c(OCc3cscn3)cc2[nH]1` [Compound 291, (S)-N-((5-chloro-6-(thiazol-4-ylmethoxy)-1H-indol-2-yl)methyl)-2-methoxypropanamide], for which the 50% inhibitory concentration (IC50) worked out at 197 nM.

For the compound `O=C(NCc1cc2cc(Cl)c(OCc3cscn3)cc2[nH]1)C1(CO)CC1` [Compound 254, N-((5-chloro-6-(thiazol-4-ylmethoxy)-1H-indol-2-yl)methyl)-1-(hydroxymethyl)cyclopropane-1-carboxamide], the IC50 worked out at 294 nM.

For `Cc1cnc(COc2cc3[nH]c(CNC(=O)N4CCCC4)cc3cc2Cl)o1` [Compound 120, N-((5-chloro-6-((5-methyloxazol-2-yl)methoxy)-1H-indol-2-yl)methyl)pyrrolidine-1-carboxamide], the 50% inhibitory concentration (IC50) came out at 375 nM.

Take `Cc1cc(COc2cc3[nH]c(CNC(=O)C4(CO)CC4)cc3cc2Cl)on1` [Compound 250, N-((5-chloro-6-((3-methylisoxazol-5-yl)methoxy)-1H-indol-2-yl)methyl)-1-(hydroxymethyl)cyclopropane-1-carboxamide]: the IC50 was 383 nM.

Consider `CC1(C(=O)NCc2cc3cc(Cl)c(CCn4ncnn4)cc3[nH]2)CC1` [Compound 584, N-((6-(2-(2H-tetrazol-2-yl)ethyl)-5-chloro-1H-indol-2-yl)methyl)-1-methylcyclopropane-1-carboxamide], for which the IC50 was 889 nM.

As to `CC1(C(=O)NCc2cc3c(F)c(Cl)c(OCc4cscn4)cc3[nH]2)CC1` [Compound 17, N-((5-chloro-4-fluoro-6-(thiazol-4-ylmethoxy)-1H-indol-2-yl)methyl)-1-methylcyclopropane-1-carboxamide], the concentration for half-maximal inhibition (IC50) worked out at 362 nM.

Take `CC1(C(=O)NCc2cc3cc(F)c(OCc4cscn4)cc3[nH]2)CCC1` [Compound 507, N-((5-fluoro-6-(thiazol-4-ylmethoxy)-1H-indol-2-yl)methyl)-1-methylcyclobutane-1-carboxamide]: the IC50 turned out to be 327 nM.

On to `CC(F)(F)C(=O)NCc1cc2cc(Cl)c(OCc3cscn3)cc2[nH]1` [Compound 435, N-((5-chloro-6-(thiazol-4-ylmethoxy)-1H-indol-2-yl)methyl)-2,2-difluoropropanamide], for which the IC50 turned out to be 133 nM.

Take `COC(=O)NCc1cc2cc(F)c(OCc3cc(C)no3)cc2[nH]1` [Compound 621, methyl ((5-fluoro-6-((3-methylisoxazol-5-yl)methoxy)-1H-indol-2-yl)methyl)carbamate]: the half-maximal inhibitory concentration (IC50) was found to be 1770 nM.

Regarding `O=C(NCc1cc2cc(Cl)c(OCc3cscn3)cc2[nH]1)[C@@H]1CCCO1` [Compound 293, (S)-N-((5-chloro-6-(thiazol-4-ylmethoxy)-1H-indol-2-yl)methyl)tetrahydrofuran-2-carboxamide], the concentration for half-maximal inhibition (IC50) came to 500 nM.

With `O=C(NCc1cc2cc(Cl)c(OCc3cscn3)cc2[nH]1)N1CCC(F)C1` (stereo not drawn) [Compound 93, N-((5-chloro-6-(thiazol-4-ylmethoxy)-1H-indol-2-yl)methyl)-3-fluoropyrrolidine-1-carboxamide], the IC50 was 177 nM.

Turning to `CC1(C(=O)NCc2cc3ccc(OCc4cscn4)c(F)c3[nH]2)CC1` [Compound 19, N-((7-fluoro-6-(thiazol-4-ylmethoxy)-1H-indol-2-yl)methyl)-1-methylcyclopropane-1-carboxamide], the IC50 amounted to 341 nM.

With `N#CCC(=O)NCc1cc2cc(Cl)c(OCc3cscn3)cc2[nH]1` [Compound 437, N-((5-chloro-6-(thiazol-4-ylmethoxy)-1H-indol-2-yl)methyl)-2-cyanoacetamide], the 50% inhibitory concentration (IC50) was determined as 382 nM.

As for `CC(C)C(=O)NCc1cc2cc(F)c(OCc3ccon3)cc2[nH]1` [Compound 138, N-((5-fluoro-6-(isoxazol-3-ylmethoxy)-1H-indol-2-yl)methyl)isobutyramide], the half-maximal inhibitory concentration (IC50) amounted to 353 nM.

As for `COC(C)COc1cc2[nH]c(CNC(=O)C3(C)CC3)cc2cc1Cl` (stereo not drawn) [Compound 454, N-((5-chloro-6-(2-methoxypropoxy)-1H-indol-2-yl)methyl)-1-methylcyclopropane-1-carboxamide], the 50% inhibitory concentration (IC50) came out at 787 nM.

Take `Cc1cc(COc2cc3[nH]c(CNC(=O)C45COC(C4)C5)cc3cc2Cl)on1` [Compound 298, N-((5-chloro-6-((3-methylisoxazol-5-yl)methoxy)-1H-indol-2-yl)methyl)-2-oxabicyclo[2.1.1]hexane-4-carboxamide]: the half-inhibitory concentration (IC50) was 921 nM.

As to `CC1(C(=O)NCc2cc3cc(F)c(CNc4ccon4)cc3[nH]2)CC1` [Compound 611, N-((5-fluoro-6-((isoxazol-3-ylamino)methyl)-1H-indol-2-yl)methyl)-1-methylcyclopropane-1-carboxamide], the IC50 is 842 nM.

As for `Cc1cc(COc2cc3[nH]c(CNC(=O)C4CCN(C)C4=O)cc3cc2Cl)on1` (racemic) [Compound 574, (R)-N-((5-chloro-6-((3-methylisoxazol-5-yl)methoxy)-1H-indol-2-yl)methyl)-1-methyl-2-oxopyrrolidine-3-carboxamide and (S)-N-((5-chloro-6-((3-methylisoxazol-5-yl)methoxy)-1H-indol-2-yl)methyl)-1-methyl-2-oxopyrrolidine-3-carboxamide], the concentration for half-maximal inhibition (IC50) worked out at 3600 nM.

With `CN1CC(C(=O)NCc2cc3cc(Cl)c(OCc4cscn4)cc3[nH]2)C1=O` (racemic) [Compound 546, (R)-N-((5-chloro-6-(thiazol-4-ylmethoxy)-1H-indol-2-yl)methyl)-1-methyl-2-oxoazetidine-3-carboxamide and (S)-N-((5-chloro-6-(thiazol-4-ylmethoxy)-1H-indol-2-yl)methyl)-1-methyl-2-oxoazetidine-3-carboxamide], the IC50 worked out at 4480 nM.

`CC1(C(=O)NCc2cc3cc(F)c(OCc4ccno4)cc3[nH]2)CC1` [Compound 328, N-((5-fluoro-6-(isoxazol-5-ylmethoxy)-1H-indol-2-yl)methyl)-1-methylcyclopropane-1-carboxamide]: the IC50 is 147 nM.

As for `Cc1cc(COc2cc3[nH]c(CNC(=O)[C@@H](O)CF)cc3cc2Cl)on1` [Compound 247, (R)-N-((5-chloro-6-((3-methylisoxazol-5-yl)methoxy)-1H-indol-2-yl)methyl)-3-fluoro-2-hydroxypropanamide], the half-inhibitory concentration (IC50) stood at 770 nM.
